# Measured values as given in patent publication US20190134005A1 (BioMarin Pharmaceutical Inc., priority 2016, published 2019).
# Target: T1, human CGT (Homo sapiens, UniProt Q16880)
# T1 sequence (Q16880 21-541): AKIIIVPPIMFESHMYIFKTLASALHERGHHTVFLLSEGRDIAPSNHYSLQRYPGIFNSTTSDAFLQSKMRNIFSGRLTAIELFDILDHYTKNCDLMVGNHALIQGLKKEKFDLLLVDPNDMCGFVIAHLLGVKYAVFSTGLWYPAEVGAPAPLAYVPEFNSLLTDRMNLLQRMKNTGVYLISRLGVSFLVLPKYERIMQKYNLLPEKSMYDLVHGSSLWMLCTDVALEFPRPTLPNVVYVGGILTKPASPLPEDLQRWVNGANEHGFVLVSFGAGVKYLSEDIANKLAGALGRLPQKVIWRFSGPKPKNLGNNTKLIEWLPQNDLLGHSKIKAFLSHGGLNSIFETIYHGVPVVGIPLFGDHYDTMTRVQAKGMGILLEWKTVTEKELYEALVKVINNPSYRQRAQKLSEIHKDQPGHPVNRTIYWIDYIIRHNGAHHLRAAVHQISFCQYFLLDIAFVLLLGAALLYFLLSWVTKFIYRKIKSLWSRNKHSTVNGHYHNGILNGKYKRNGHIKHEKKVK
# Experiment: CGT Enzyme Assay (Biological Example 2, RapidFire/MS/MS method with 0.01% Tween 80 added)
# Type: biochemical
# Settings: enzymatic assay, CHO/CGT lysate
# How it was run: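 Lysate of CHO cells transfected with full-length human CGT, 0.5% DMSO final, 0.01% Tween 80 added; reactions stopped with methanol:acetonitrile holding internal standard. C6-NBD-dihydro-galactosylceramide and C6-NBD-dihydro-ceramide measured by RapidFire/MS/MS (ESI negative), product peak area normalized to internal standard.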
row,Structure (SMILES),IC50
1,"Cc1ccc(N2C(=O)N(c3ccc(C#N)cc3)[C@@H](c3cccc(C#N)c3)C2(C)C)cc1 [Example 48-2, (S)-3-(3-(4-cyanophenyl)-5,5-dimethyl-2-oxo-1-(p-tolyl)imidazolidin-4-yl)benzonitrile]",< 1 µM
2,Cc1ccc(N2C(=O)N(c3ccc(Cl)cc3)[C@@H](c3cccc(OC(F)(F)F)c3)C23COC3)cc1 [Example 49-2],< 1 µM
3,"Cc1ccc(N2C(=O)N(c3ccc(C#N)cc3)[C@H](c3cccc(OC(F)(F)F)c3)C2(C)C)cc1 [Example 50-1, (R)-4-(4,4-dimethyl-2-oxo-3-(p-tolyl)-5-(3-(trifluoromethoxy)phenyl)imidazolidin-1-yl)benzonitrile]",< 1 µM
4,"Cc1ccc(N2C(=O)N(c3ccc(C#N)cc3)[C@@H](c3cccc(OC(F)(F)F)c3)C2(C)C)cc1 [Example 50-2, (S)-4-(4,4-dimethyl-2-oxo-3-(p-tolyl)-5-(3-(trifluoromethoxy)phenyl)imidazolidin-1-yl)benzonitrile]",10 to 30 µM
5,"CC[C@]1(C)[C@H](c2cccc(OC(F)(F)F)c2)N(c2ccc(C#N)cc2)C(=O)N1c1ccc(C#N)cc1 [Example 51-2, 4,4′-((4R,5S)-4-ethyl-4-methyl-2-oxo-5-(3-(trifluoromethoxy)phenyl)imidazolidine-1,3-diyl)dibenzonitrile]",< 1 µM
6,"CC[C@]1(C)[C@@H](c2cccc(OC(F)(F)F)c2)N(c2ccc(C#N)cc2)C(=O)N1c1ccc(C#N)cc1 [Example 51-3, 4,4′-((4R,5R)-4-ethyl-4-methyl-2-oxo-5-(3-(trifluoromethoxy)phenyl)imidazolidine-1,3-diyl)dibenzonitrile]",1 to 10 µM
7,"CC[C@@]1(C)[C@H](c2cccc(OC(F)(F)F)c2)N(c2ccc(C#N)cc2)C(=O)N1c1ccc(C#N)cc1 [Example 51-5, 4,4′-((4S,5S)-4-ethyl-4-methyl-2-oxo-5-(3-(trifluoromethoxy)phenyl)imidazolidine-1,3-diyl)dibenzonitrile]",1 to 10 µM
8,"CC[C@@]1(C)[C@@H](c2cccc(OC(F)(F)F)c2)N(c2ccc(C#N)cc2)C(=O)N1c1ccc(C#N)cc1 [Example 51-6, 4,4′-((4S,5R)-4-ethyl-4-methyl-2-oxo-5-(3-(trifluoromethoxy)phenyl)imidazolidine-1,3-diyl)dibenzonitrile]",10 to 30 µM
9,"CCC[C@]1(C)[C@H](c2cccc(OC(F)(F)F)c2)N(c2ccc(C#N)cc2)C(=O)N1c1ccc(C#N)cc1 [Example 52-2, 4,4′-((4R,5S)-4-methyl-2-oxo-4-propyl-5-(3-(trifluoromethoxy)phenyl)imidazolidine-1,3-diyl)dibenzonitrile]",< 1 µM
10,"CCC[C@]1(C)[C@@H](c2cccc(OC(F)(F)F)c2)N(c2ccc(C#N)cc2)C(=O)N1c1ccc(C#N)cc1 [Example 52-3, 4,4′-((4R,5R)-4-methyl-2-oxo-4-propyl-5-(3-(trifluoromethoxy)phenyl)imidazolidine-1,3-diyl)dibenzonitrile]",1 to 10 µM
11,"CCC[C@@]1(C)[C@H](c2cccc(OC(F)(F)F)c2)N(c2ccc(C#N)cc2)C(=O)N1c1ccc(C#N)cc1 [Example 52-5, 4,4′-((4S,5S)-4-methyl-2-oxo-4-propyl-5-(3-(trifluoromethoxy)phenyl)imidazolidine-1,3-diyl)dibenzonitrile]",< 1 µM
12,"CCC[C@@]1(C)[C@@H](c2cccc(OC(F)(F)F)c2)N(c2ccc(C#N)cc2)C(=O)N1c1ccc(C#N)cc1 [Example 52-6, 4,4′-((4S,5R)-4-methyl-2-oxo-4-propyl-5-(3-(trifluoromethoxy)phenyl)imidazolidine-1,3-diyl)dibenzonitrile]",10 to 30 µM
13,"Cc1ccc(N2C(=O)N(c3ccc(C#N)cc3)C(C)(C)[C@H]2c2cccc(C#N)c2)cc1 [Example 54-1, (R)-3-(1-(4-cyanophenyl)-5,5-dimethyl-2-oxo-3-(p-tolyl)imidazolidin-4-yl)benzonitrile]",10 to 30 µM
14,"Cc1ccc(N2C(=O)N(c3ccc(C#N)cc3)C(C)(C)[C@@H]2c2cccc(C#N)c2)cc1 [Example 54-2, (S)-3-(1-(4-cyanophenyl)-5,5-dimethyl-2-oxo-3-(p-tolyl)imidazolidin-4-yl)benzonitrile]",< 1 µM

# Further lines, results first:
row,IC50,Structure (SMILES)
1,10 to 30 µM,"Cc1ccc(N2C(=O)N(c3ccc(C#N)cc3)[C@H](c3cccc(C#N)c3)C23COC3)cc1 [Example 55-1, (R)-3-(7-(4-cyanophenyl)-6-oxo-5-(p-tolyl)-2-oxa-5,7-diazaspiro[3.4]octan-8-yl)benzonitrile]"
2,1 to 10 µM,"Cc1ccc(N2C(=O)N(c3ccc(C#N)cc3)[C@@H](c3cccc(C#N)c3)C23COC3)cc1 [Example 55-2, (S)-3-(7-(4-cyanophenyl)-6-oxo-5-(p-tolyl)-2-oxa-5,7-diazaspiro[3.4]octan-8-yl)benzonitrile]"
3,10 to 30 µM,"Cc1ccc(N2C(=O)N(c3ccc(Cl)cc3)[C@H](c3cccc(OC(F)(F)F)c3)C2(C)C)cc1 [Example 56-1, (R)-1-(4-chlorophenyl)-4,4-dimethyl-3-(p-tolyl)-5-(3-(trifluoromethoxy)phenyl)imidazolidin-2-one]"
4,< 1 µM,"Cc1ccc(N2C(=O)N(c3ccc(Cl)cc3)[C@@H](c3cccc(OC(F)(F)F)c3)C2(C)C)cc1 [Example 56-2, (S)-1-(4-chlorophenyl)-4,4-dimethyl-3-(p-tolyl)-5-(3-(trifluoromethoxy)phenyl)imidazolidin-2-one]"
5,10 to 30 µM,"Cc1ccc(N2C(=O)N(c3ccc(C#N)cc3)C3(COC3)[C@H]2c2cccc(C#N)c2)cc1 [Example 57-1, (R)-3-(5-(4-cyanophenyl)-6-oxo-7-(p-tolyl)-2-oxa-5,7-diazaspiro[3.4]octan-8-yl)benzonitrile]"
6,< 1 µM,"Cc1ccc(N2C(=O)N(c3ccc(C#N)cc3)C3(COC3)[C@@H]2c2cccc(C#N)c2)cc1 [Example 57-2, (S)-3-(5-(4-cyanophenyl)-6-oxo-7-(p-tolyl)-2-oxa-5,7-diazaspiro[3.4]octan-8-yl)benzonitrile]"
